Values quoted from earlier work as cited in US8260406B2, “System and method for analyzing complex curvature of ECG curves” (Aalborg Universitet, priority 2006, dated 2012).

Test system: cardiac repolarization (T-wave) in healthy subjects
Settings: 30 min after sotalol administration; increase; p<0.05; occurring prior to QT prolongation; PCA of ECG Holter recordings

CC(C)NCC(O)c1ccc(NS(C)(=O)=O)cc1 (stereo not shown) [sotalol]
turbulence of repolarization velocity increased by: 9.02%
